Experimental data taken from article PMC2010280 (British Journal of Cancer, 1980).

Tests used:
[1] = tested on: P388 leukaemic spleen colony-forming-units(LCFU-S); assay: Mouse spleen-colony assay (P388 leukaemia, femoral marrow LCFU-S); assay type: in vivo, male DBA/2 mice; conditions: 8 u/kg/day for 6 days (Day 1-6); 10^6 P388 cells i.v. on Day 0; osmotic minipump vs daily i.p. bolus; groups of 5 mice
Source text: MATERIALS AND METHODS Mice.-6-8-week-old male DBA/2 mice weighing 20-25 g were purchased from the Jackson Laboratory, Bar Harbor, Maine. They were maintained on normal laboratory chow and acid water ad. lib. Mouse leukaemia.-P388 lymphocytic leu- kaemia was supplied by Dr Daniel Griswold, Southern Research Institute, Birmingham, Alabama, and serially transplanted as ain ascites tumour at weekly intervals ([…] every 7 days in McCoy's 5a medium. Gibco, Grant Island, NY). […] Ill addition to an un- treated control group, 5 animals were implanted with minipumps containing 0.900 NaCl. Seven days after cell injection, the mice of the untreated control and treated groups were killed, femurs isolated, and marrow cells washed out with McCoy's 5a medium. Appro- priate dilutions of the leukaemic femoral marrow cells were injected i.v. into groups of 10 DBA/2 mice. Eight days later, the recipient mice were killed, spleens removed and fixed in Bouin's solution. The number of surface nacroscopic, leukaemic colony-forming units (LCFU-S) were counted with a dissecting microscope, and the fraction of surviving LCFU per femur determined. Pharmacokinetic studies.-On Day 0, 106 P388 ascites cells were injected i.v. into groups of 30 DBA/2 mice. […] For the C.i.p. group, blood samples from at least 3 mice were col- lected in heparinized tubes by heart puncture every day for 6 days. […]

[2] = Source text: MATERIALS AND METHODS Mice.-6-8-week-old male DBA/2 mice weighing 20-25 g were purchased from the Jackson Laboratory, Bar Harbor, Maine. They were maintained on normal laboratory chow and acid water ad. lib. Mouse leukaemia.-P388 lymphocytic leu- kaemia was supplied by Dr Daniel Griswold, Southern Research Institute, Birmingham, Alabama, and serially transplanted as ain ascites tumour at weekly intervals ([…] every 7 days in McCoy's 5a medium. Gibco, Grant Island, NY). […] Ill addition to an un- treated control group, 5 animals were implanted with minipumps containing 0.900 NaCl. Seven days after cell injection, the mice of the untreated control and treated groups were killed, femurs isolated, and marrow cells washed out with McCoy's 5a medium. Appro- priate dilutions of the leukaemic femoral marrow cells were injected i.v. into groups of 10 DBA/2 mice. Eight days later, the recipient mice were killed, spleens removed and fixed in Bouin's solution. The number of surface nacroscopic, leukaemic colony-forming units (LCFU-S) were counted with a dissecting microscope, and the fraction of surviving LCFU per femur determined. Pharmacokinetic studies.-On Day 0, 106 P388 ascites cells were injected i.v. into groups of 30 DBA/2 mice. […] For the C.i.p. group, blood samples from at least 3 mice were col- lected in heparinized tubes by heart puncture every day for 6 days. […] At least 3 mice were killed at each sampling time. Blood samples were centrifuged at 2,000 rev/min and 4?C for 10 min and the plasmas separated and immediately stored at -20?C. […] Data analysis-Statistical analysis of the differences betwNeen LCFU dose-response (i.e., drug dose vs fraction of CFU surviving per femur) curves for the two different treat- ments used the analysis of covariance method (Snedecor & Cochran, 1979). […] I. Intravenous administration. Cancer Chemother. Pharmacol., 1, 177. […] II. Intra- cavitary administration. Cancer Chemother. Pharmacol., 2, 127. BAKER, L. H., OPIPARI, M. I., WILSON, H., BOTTOMLEY, R. & COLTMAN, C. A., JR. […] Obstet. Gynecol., 52, 146. BARRANCO, S. C. […] Ed. Carter, Crooke & Umezawa. New York: Academic Press. p. […] Cancer Res., 36, 1418. MELLETT, L. B. (1973) Considerations in design of optimal therapeutic schedules, Pharmacology and the Future of Man. In Problems of Therapy, Vol. 3. Ed. Okita & Acheson. Basel: S. Karger. p. 332. METZLER, C. M. (1969) Technical Report 7292/69/ 7292/005. […] Proc. AACR and ASCO, 20, 202. […] Eds. Carter, Crooke & Umezawa. New York: Academic Press. p. 117. […] Cancer Treat. Rep., 62, 2011. SKIPPER, H. E., SCHABEL, F. M., JR & WILCOX, W. S. (1967) Experimental evaluation of potential anticancer agents. XXI. Scheduling of arabinosyl cytosine to take advantage of its S-phase speci- ficity against leukaemia cells. Cancer Chemother Rep., 51, 125. […]
[3] = Bleomycin stability in the Alzet osmotic minipump; conditions: in 0.9% NaCl, 37 C, for at least 6 days (determined for 7 days in saline)

With bleomycin the “greater reduction of LCFU-S by continuous i.p. infusion than by intermittent i.p. bolus at identical dose” value [1] was 0.5 log, the “period during which plasma concentrations greater than 0.6 mu/ml are maintained” value ([2]; after continuous i.p. infusion (C.i.p.), 8 u/kg/day) was “about 6 days” and the “period during which bleomycin plasma concentration remains above 0.6 mu/ml” value ([2]; after intermittent i.p. bolus (I.i.p.) administration, 8 u/kg/day) was “about 92 min”. For the same substance, the “constant bleomycin plasma level” value ([2]; continuous i.p. infusion (osmotic minipump), 8 u/kg/day for 6 days, P388-bearing mice, radioimmunoassay, pooled plasma of groups of 3 mice, daily samples) was 0.62 +/- 0.03 mu/ml, the “peak bleomycin plasma level” value ([2]; intermittent i.p. bolus, 8 u/kg/day, at 5 min after the dose, Day 5, radioimmunoassay) was 32 mu/ml and the “stability inside the osmotic minipump” value [3] was 100%.
